Measurements published in US11149033B2, “Heteroaryl compound, enantiomer, diastereomer or pharmaceutically acceptable salt thereof, and antiviral composition containing same as active ingredient” (priority 2016, dated 2021).

What was measured:
[1] = in vitro
[2] = CC50, third EC50/CC50 column pair (c7), beside the EC50 of c6
[3] = CC50 B/Florida/04/2006, cytotoxicity in the B/Florida/04/2006 assay

Compound | CC50 ([1]; CC50, beside the EC50 of c2) [µM] | CC50 ([1]; CC50, beside the EC50 of c4) [µM] | CC50 [1, 2] [µM] | melting point [°C] | CC50 [1, 3] [µM]
CC(C)c1ccccc1/C=C/c1nnc(Cc2ccc(OC(F)(F)F)cc2)o1 [Compound 81, (E)-2-(2-isopropylstyryl)-5-(4-(trifluoromethoxy)benzyl)-1,3,4-oxadiazole] | > 50 | > 50 | > 50 | 91.6 | 
Clc1ccc(-c2ccccc2/C=C/c2nnc(Cc3ccc(Br)cc3)o2)cc1 [Compound 153, 2-(4-bromobenzyl)-5-(2-(4′-chloro-[1,1′-biphenyl]-2-yl)vinyl)-1,3,4-oxadiazole] | > 50 | > 50 | > 50 | 123.7 | 
Cc1cc(Cc2nnc(/C=C/c3ccc(F)cc3Cl)o2)ccc1Br [Compound 176, (E)-2-(4-bromo-3-methylbenzyl)-5-(2-chloro-4-fluorostyryl)-1,3,4-oxadiazole] | 6.53 | > 50 | > 50 | 119.9 | 
Fc1ccc(/C=C/c2nnc(Cc3ccc(F)c(Br)c3)o2)c(Cl)c1 [Compound 207, 2-(3-bromo-4-fluorobenzyl)-5-(2-chloro-4-fluorostyryl)-1,3,4-oxadiazole] | > 50 | > 50 | > 50 | 123 | 
Cc1ccccc1Sc1nnc(CCn2nc(C)c(Br)c2C)o1 [Compound 54, 2-(2-(4-bromo-3,5-dimethyl-1H-pyrazol-1-yl)ethyl)-5-(o-tolylthio)-1,3,4-oxadiazole] |  |  |  | 103.6 | > 50
Cc1cc(Cc2nnc(/C=C/c3ccccc3C(C)C)o2)ccc1Br [Compound 172, 2-(4-bromo-3-methylbenzyl)-5-(2-isopropylstyryl)-1,3,4-oxadiazole] | > 50 | > 50 | > 50 | 117.1 | 
Brc1ccc(Cc2nnc(-c3cc4ccccc4o3)o2)cc1 [Compound 156, 2-(benzofuran-2-yl)-5-(4-bromobenzyl)-1,3,4-oxadiazole] | > 50 | > 50 | > 50 | 145.7 | 
Fc1ccc(/C=C/c2nnc(Cc3cccc(Br)c3)o2)c(F)c1 [Compound 189, 2-(3-bromobenzyl)-5-(2,4-difluorostyryl)-1,3,4-oxadiazole] | > 50 | > 50 | > 50 | 87.7 | 
Brc1ccc(Nc2nnc(/C=C/c3cccc4ncccc34)o2)cc1 [Compound 121, (E)-N-(4-bromophenyl)-5-(2-(quinolin-5-yl)vinyl)-1,3,4-oxadiazol-2-amine] | > 50 | > 50 | > 50 | 246.5 | 
Cc1nn(C(=O)c2ccc(Sc3ccccc3C(C)C)o2)c(C)c1Br [Compound 56, (4-bromo-3,5-dimethyl-1H-pyrazol-1-yl)(5-((2-isopropylphenyl)thio)furan-2-yl)methanone] |  |  |  | 169.7 | > 50
Cc1cccc(C)c1Nc1nnc(C(=O)c2ccc(F)c(Cl)c2)o1 [Compound 78, (3-chloro-4-fluorophenyl)(5-((2,6-dimethylphenyl)amino)-1,3,4-oxadiazol-2-yl)methanone] |  |  |  | 252.8 | > 50
Cc1nn(C(=O)c2ccc(Oc3ccccc3C(C)C)o2)c(C)c1Br [Compound 57, (4-bromo-3,5-dimethyl-1H-pyrazol-1-yl)(5-(2-isopropylphenoxy)furan-2-yl)methanone] |  |  |  | 103.3 | > 50
Clc1ccc(/C=C/c2nnc(Cc3ccc(Br)cc3)o2)cc1Cl [Compound 149, 2-(4-bromobenzyl)-5-(3,4-dichlorostyryl)-1,3,4-oxadiazole] | > 50 | > 50 | > 50 | 164.5 | 
Fc1ccc(/C=C/c2nnc(Cc3ccc(F)c(Br)c3)o2)c(F)c1 [Compound 263, 2-(3-bromo-4-fluorobenzyl)-5-(2,4-difluorostyryl)-1,3,4-oxadiazole] |  |  |  | 115 | 
COc1ccc2cccc(Cc3nnc(/C=C/c4ccc(F)cc4Cl)o3)c2c1 [Compound 298, 2-(2-chloro-4-fluorostyryl)-5-((7-methoxynaphthalen-1-yl)methyl)-1,3,4-oxadiazole] |  |  |  | 179.9 | 
Cc1cccc(C)c1Nc1nnc(C(O)c2ccccc2)o1 (stereo not shown) [Compound 77, (5-((2,6-dimethylphenyl)amino)-1,3,4-oxadiazol-2-yl)(phenyl)methanol] |  |  |  | 179 | > 50
Clc1ccccc1/C=C/c1nnc(Cc2ccc(Br)cc2)o1 [Compound 166, 2-(4-bromobenzyl)-5-(2-chlorostyryl)-1,3,4-oxadiazole] | > 50 | > 50 | > 50 | 136.3 | 
Cc1ccccc1CSc1ncc(C(=O)n2nc(C)c(Br)c2C)o1 [Compound 55, (4-bromo-3,5-dimethyl-1H-pyrazol-1-yl)(2-((2-methylbenzyl)thio)oxazol-5-yl)methanone] |  |  |  | 123.6 | > 50
O=C(Nc1cccc(Br)c1)c1nnc(/C=C/c2ccc(F)cc2Cl)o1 [Compound 253, N-(3-bromophenyl)-5-(2-chloro-4-fluorostyryl)-1,3,4-oxadiazole-2-carboxamide] |  |  |  | 254.2 | 
Cc1c(Br)cccc1Cc1nnc(/C=C/c2ccc(F)cc2Cl)o1 [Compound 294, 2-(3-bromo-2-methylbenzyl)-5-(2-chloro-4-fluorostyryl)-1,3,4-oxadiazole] |  |  |  | 158.3 | 

Compound | CC50 ([1]; CC50, beside the EC50 of c2) [µM] | CC50 ([1]; CC50, beside the EC50 of c4) [µM] | CC50 [1, 2] [µM] | melting point [°C] | CC50 [1, 3] [µM]
Cc1cc(F)cc(Cc2nnc(/C=C/c3ccc(F)cc3Cl)o2)c1 [Compound 255, 2-(2-chloro-4-fluorostyryl)-5-(3-fluoro-5-methylbenzyl)-1,3,4-oxadiazole] |  |  |  | 117 | 
O=C(O)c1ccccc1/C=C/c1nnc(Cc2cccc(Br)c2)o1 [Compound 243, 2-(2-(5-(3-bromobenzyl)-1,3,4-oxadiazol-2-yl)vinyl)benzoic acid] |  |  |  | 167.7 | 
Fc1ccc(/C=C/c2nnc(Cc3cccc(Cl)c3F)o2)c(Cl)c1 [Compound 291, 2-(3-chloro-2-fluorobenzyl)-5-(2-chloro-4-fluorostyryl)-1,3,4-oxadiazole] |  |  |  | 118.1 | 
Fc1ccc(/C=C/c2nnc(Cc3nccc4ccccc34)o2)c(Cl)c1 [Compound 237, 2-(2-chloro-4-fluorostyryl)-5-(isoquinolin-1-ylmethyl)-1,3,4-oxadiazole] |  |  |  | 171.4 | 
Fc1ccc(/C=C/c2nnc(Cc3ccc(F)c(Br)c3)o2)c(Br)c1 [Compound 266, 2-(3-bromo-4-fluorobenzyl)-5-(2-bromo-4-fluorostyryl)-1,3,4-oxadiazole] |  |  |  | 124.9 | 
Fc1ccc(/C=C/c2nnc(Cc3ccccc3Br)o2)c(Cl)c1 [Compound 222, 2-(2-bromobenzyl)-5-(2-chloro-4-fluorostyryl)-1,3,4-oxadiazole] |  |  |  | 155.2 | 
Fc1ccc(/C=C/c2nnc(Cc3cccc(Br)c3)o2)c(Br)c1 [Compound 215, 2-(2-bromo-4-fluorostyryl)-5-(3-bromobenzyl)-1,3,4-oxadiazole] |  |  |  | 129.5 | 
FC(F)(F)c1ccccc1/C=C/c1nnc(Cc2cccc(Br)c2)o1 [Compound 281, 2-(3-bromobenzyl)-5-(2-(trifluoromethyl)styryl)-1,3,4-oxadiazole] |  |  |  | 107.2 | 
Fc1ccc(/C=C/c2nnc(Cc3cccc4cccnc34)o2)c(Cl)c1 [Compound 236, 2-(2-chloro-4-fluorostyryl)-5-(quinolin-8-ylmethyl)-1,3,4-oxadiazole] |  |  |  | 171.9 | 
Fc1ccc(/C=C/c2nnc(Cc3cc(Br)ccc3F)o2)c(Cl)c1 [Compound 258, 2-(5-bromo-2-fluorobenzyl)-5-(2-chloro-4-fluorostyryl)-1,3,4-oxadiazole] |  |  |  | 156.6 | 
Fc1ccc(/C=C/c2nnc(Cc3cncc4ccccc34)o2)c(Cl)c1 [Compound 238, 2-(2-chloro-4-fluorostyryl)-5-(isoquinolin-4-ylmethyl)-1,3,4-oxadiazole] |  |  |  | 171.3 | 
Cn1cc(Cc2nnc(/C=C/c3ccc(F)cc3Cl)o2)c2ccccc21 [Compound 213, 2-(2-chloro-4-fluorostyryl)-5-((1-methyl-1H-indol-3-yl)methyl)-1,3,4-oxadiazole] |  |  |  | 148.1 | 
CN(C)c1cccc(Cc2nnc(/C=C/c3ccc(F)cc3Cl)o2)c1 [Compound 217, 3-((5-(2-chloro-4-fluorostyryl)-1,3,4-oxadiazol-2-yl)methyl)-N,N-dimethylaniline] |  |  |  | 134.2 | 
COC(=O)c1ccccc1/C=C/c1nnc(Cc2cccc(Br)c2)o1 [Compound 242, methyl-2-(2-(5-(3-bromobenzyl)-1,3,4-oxadiazol-2-yl)vinyl)benzoate] |  |  |  | 131.1 | 
c1ccc(-c2cccc(CSc3nnc(Cn4cc(-c5ccccc5)cn4)o3)c2)cc1 |  |  |  | 74.1 | 
Cc1cccc(Cc2nnc(/C=C/c3ccc(F)cc3Cl)o2)c1 [Compound 211, 2-(2-chloro-4-fluorostyryl)-5-(3-methylbenzyl)-1,3,4-oxadiazole] |  |  |  | 100.5 | 
O=C(Nc1ccc(F)cc1Cl)c1nnc(Cc2cccc(Br)c2)o1 [Compound 244, 5-(3-bromobenzyl)-N-(2-chloro-4-fluorophenyl)-1,3,4-oxadiazole-2-carboxamide] |  |  |  | 165.8 | 
Cc1ccc(Cc2nnc(/C=C/c3ccc(F)cc3F)o2)cc1Br [Compound 262, 2-(3-bromo-4-methylbenzyl)-5-(2,4-difluorostyryl)-1,3,4-oxadiazole] |  |  |  | 132 | 
Cc1ccc(Cc2nnc(/C=C/c3ccc(F)cc3Br)o2)cc1Br [Compound 265, 2-(2-bromo-4-fluorostyryl)-5-(3-bromo-4-methylbenzyl)-1,3,4-oxadiazole] |  |  |  | 152.6 | 
Fc1ccc(/C=C/c2nnc(Cc3cccc(Br)c3F)o2)c(Cl)c1 [Compound 293, 2-(3-bromo-2-fluorobenzyl)-5-(2-chloro-4-fluorostyryl)-1,3,4-oxadiazole] |  |  |  | 135.8 | 
